Patent publication US20030017976A1, “Therapeutic properties of liposome-encapsulated immunomodulators” (priority 1998, published 2003)
Several values for one entry are separate records, joined by “and”; a condition that tells them apart may be missing. Equal entries are not always repeated. Where two headings read alike, the source gives them in different places. Marks after values point to notes of the source that are not given here.

How the values were obtained:
C57BL/6 mice [1] = assay: Prevention of CPT-11 induced intestinal damage and morbidity by oral immunomodulator; type: in vivo, mouse; conditions: for Death / Morbidity: 4 daily i.p., oral saline or free-form MTP-PE 100 ug/dose for one week before
Protocol: Experimental Design and Methods. […] Tissue was harvested 7 days after the last injection (small intestine and colon distal to the cecum). Histology was prepared. Some mice were monitored for the presence of drug toxicity.
Example 6 has shown that 100, 150, and 200 mg/kg at 4 consecutive i.p. administrations are highly toxic to C57BL/6 mice.

CT-26P colon carcinoma = assay: Combination therapy of CT-26P colon carcinoma with CPT-11 and oral liposomal JBT3002; type: in vivo, mouse; conditions: day 17; for Liver Weights, mean / Liver Weights, single mice: alone or + oral liposomal JBT3002 1 μg/dose
Protocol: This course of therapy was repeated weekly for about three weeks prior to tissue harvest. Experimental Groups/Procedures: 40 Balb/c mice were divided into 8 groups of 5 mice each. On day 0, the spleens of the mice were injected with 15,000 cultured CT-26P cells. The groups were then treated as follows: The spleens of Balb/c mice were injected with 15,000 cultured CT-26P colon carcinoma cells on day 0. […] Treated mice received two weeks of chemotherapy and three weeks of the macrophage activator. Tissues were harvested on day 17. The spleens and livers were weighed, the extent of metastasis was graded (denoted below) and histology prepared.

[2] = tested on: L3.6pl human pancreatic tumors; assay: Therapy of L3.6pl human pancreatic tumors in nude mice; type: in vivo, mouse; conditions: CPT-11 100 mg/kg i.p. once a week +/− oral JBT 3002 (tablet) 0.05 mcg/dose
Protocol: Table 19 (A, B, C). Therapy of human pancreatic carcinoma liver metastasis. The pancreas of nude mice were injected with 1×10^6 viable human pancreatic cancer L3.6pl cells. […] This regimen was repeated on a weekly basis for 3 weeks. The mice were killed. Pancreatic tumors, liver metastases, and lymph node metastasis were quantified.

IL-15 = assay: Ileum and liver lesion histology, BrdUrd and IL-15 expression after JBT 3002 and CPT-11; type: in vivo, mouse
Protocol: BALB/c mice were injected with CT-26 colon cancer cells into the spleen. […] Four days after the last injection of CPT-11, some mice were killed and their ileum was harvested and prepared for histology, immunohistochemistry, and molecular biology analyses.

[3] = Body weight change and deaths during therapy of CT-26 bearing BALB/c mice; type: in vivo, mouse
C57BL/6 mice [4] = tested on: C57BL/6 mice
[5] = tested on: CT-26 colon cancer liver metastasis; assay: Combination therapy of MTP-PE and CPT-11 for CT-26 colon cancer liver metastasis
CT-26 colon carcinoma = assay: Therapy of experimental liver metastasis of CT-26 colon carcinoma with CPT-11 and oral JBT 3002
[6] = Table 10, oral MLV-HBSS, CPT-11 100 mg/kg i.p. once a week, day 23
[7] = Table 11, CPT-11 100 mg/kg i.p. once a week alone, day 24
[8] = Table 12, oral MLV-HBSS, CPT-11 100 mg/kg 4 daily i.p. (intensive), day 14
[9] = Table 13, oral MLV-HBSS, CPT-11 100 mg/kg i.p. once a week, day 23
[10] = CPT-11 50 mg/kg, oral saline or MTP-PE
[11] = Table 14, MLV-JBT 3002 1.0 μg/dose or FF-JBT 3002 0.05 μg/dose oral 3 days, CPT-11 100 mg/kg 4 daily i.p., day 21
[12] = Table 15, oral JBT 3002 0.05 μg/dose 3 consecutive days and/or CPT-11 100 mg/kg 4 daily i.p., day 21
[13] = Table 16, oral JBT3002 0.05 μg dose thrice weekly 3 weeks and/or CPT-11 100 mg/kg i.p. once a week, day 24

CCc1c2c(nc3ccc(OC(=O)N4CCC(N5CCCCC5)CC4)cc13)-c1cc3c(c(=O)n1C2)COC(=O)[C@]3(O)CC [CPT-11, Irinotecan]
Death (C57BL/6 mice [1]; CPT-11 100 mg/kg): 0/10 | Morbidity (C57BL/6 mice [1]; CPT-11 100 mg/kg): 8/10 | damage to intestinal tissue (C57BL/6 mice [1]; CPT-11 100 mg/kg, oral MTP-PE 100 μg/dose three consecutive days per week, C57BL/6 mice): induces loss of structural integrity of duodenal and large colon crypts | Death (C57BL/6 mice [1]; CPT-11 150 mg/kg): 6/10 | Morbidity (C57BL/6 mice [1]; CPT-11 150 mg/kg): 10/10 | Death (C57BL/6 mice [1]; CPT-11 200 mg/kg): 9/10 | Morbidity (C57BL/6 mice [1]; CPT-11 200 mg/kg): 10/10 | GI toxicity (histology of intestinal villi and lumen) (C57BL/6 mice [1]; oral PBS or MTP-PE 100 μg/dose 3×/week for 3 weeks, then 4 i.p. injections of CPT-11): severe damage to the intestinal villi and lumen | intestinal toxicity (histology) (C57BL/6 mice [1]; oral saline or JBT3002 0.1, 1.0 and 10 μg/dose in PC liposomes, then CPT-11 100 mg/kg i.p. 4 days): induced severe toxicity | Spleen Weights, mean (CT-26P colon carcinoma; CPT-11 25 mg/kg once a week, alone or + oral JBT3002 1 μg/dose in PC liposomes 3x/week): 1.284 ± 0.257 grams | Spleen Weights, single mice (CT-26P colon carcinoma; CPT-11 25 mg/kg once a week, alone or + oral JBT3002 1 μg/dose in PC liposomes 3x/week, 25 mg/kg): 1.486 grams and 0.888 grams and 1.056 grams and 1.588 grams and 1.403 grams | Liver Weights, mean (CT-26P colon carcinoma; CPT-11 25 mg/kg once a week): 1.670 ± 0.301 grams | Liver Weights, single mice (CT-26P colon carcinoma; CPT-11 25 mg/kg once a week, 25 mg/kg): 1.416 grams and 1.460 grams and 2.246 grams | Spleen Weights, mean (CT-26P colon carcinoma; CPT-11 50 mg/kg once a week, alone or + oral JBT3002 1 μg/dose in PC liposomes 3x/week): 0.746 ± 0.561 grams | Liver Weights, single mice (CT-26P colon carcinoma; CPT-11 50 mg/kg once a week, 50 mg/kg): 1.407 grams and 1.205 grams and 1.525 grams | Spleen Weights, mean (CT-26P colon carcinoma; CPT-11 100 mg/kg once a week, alone or + oral JBT3002 1 μg/dose in PC liposomes 3x/week): 0.216 ± 0.110 grams | Liver Weights, mean (CT-26P colon carcinoma; CPT-11 100 mg/kg once a week): 1.203 ± 0.065 grams | Liver Weights, single mice (CT-26P colon carcinoma; CPT-11 100 mg/kg once a week, 100 mg/kg): 1.105 grams and 1.252 grams and 1.172 grams and 1.293 grams and 1.196 grams | Incidence LN met ([2]; 31 days): 7/10 | Incidence WT/PC ([2]; 31 days): 0/10 | Incidence liver met ([2]; 31 days): 0/10 | Tumor weight, Average ([2]; 31 days): 152.10 mg | Tumor weight, Max ([2]; 31 days): 375 mg | Tumor weight, Median ([2]; 31 days): 117.5 mg | Tumor weight, Min ([2]; 31 days): 0 mg | tumor weight (range) ([2]; 31 days): (0-375) mg | Tumor weight, single animals ([2]; 31 days after tumor cell injection, 100 mg/kg): 80 mg and 375 mg and 241 mg and 0 mg (2×) and 98 mg and 318 mg and 137 mg and 205 mg and 67 mg | intestinal architecture of ileum (H&E) (IL-15; CPT-11 100 mg/kg, JBT 3002 0.05 μg/dose): produces disruption of the intestinal architecture | expression of IL-15 in the ileum (IL-15; mouse, in vivo): significant decrease in expression of IL-15 | ΔBW [3, 6]: −1.7% | ΔBW [3, 7]: −1.5% | ΔBW [3, 8]: −17.6% | ΔBW [3, 9]: 1.2% | ΔBW ([3]; Table 14, MLV-JBT 3002 1.0 μg/dose or FF-JBT 3002 0.05 μg/dose oral 3 days, CPT-11 100 mg/kg 4 daily i.p., day not given): −24.0% | Mice that died during therapy ([3]; Table 15, CPT-11 100 mg/kg 4 daily i.p. alone, 10 mice, 100 mg/kg): 7 of 10 | Survival (C57BL/6 mice [4]; 100 mg/kg CPT-11 i.p. Day 1-4, C57BL6 mice): 5/5 | Survival (C57BL/6 mice [4]; 150 mg/kg CPT-11 i.p. Day 1-4, C57BL6 mice): 3/5 | Survival (C57BL/6 mice [4]; 200 mg/kg CPT-11 i.p. Day 1-4, C57BL6 mice): 0/5 | deaths (C57BL/6 mice [4]; CPT-11 50, 75 or 100 mg/kg once a day for 4 days (i.p.)): None of the injected mice died | lethal dose (C57BL/6 mice [4]; i.p. Day 1-4, C57BL6 mice): 200 mg/kg | Liver Median no. metastases [5, 10]: 30 | Liver weight [5, 10]: 2.0 ± 0.3 | Spleen Tumor size [5, 10]: 8.3 ± 2.0 mm | Spleen Weight [5, 10]: 0.6 ± 0.2 g | Death of mice ([5]; CPT-11 100 mg/kg, oral saline): ------------------All mice died.------------------------ | tumor burden of the liver ([5]; CPT-11 25-100 mg/kg, CT-26P injected into the spleen): dose-dependent reduction in tumor burden of the liver | Liver metastasis Incidence (CT-26 colon carcinoma; [6]): 5/5 | Liver weight (CT-26 colon carcinoma; [6]): 1.8 ± 0.3^b g | Spleen (primary) Incidence (CT-26 colon carcinoma; [6]): 5/5 | Liver metastasis Incidence (CT-26 colon carcinoma; [7]): 5/5 | Liver weight (CT-26 colon carcinoma; [7]): 1.7 ± 0.3^c g | Spleen (primary) Incidence (CT-26 colon carcinoma; [7]): 5/5 | Liver metastasis Incidence (CT-26 colon carcinoma; [8]): 2/5 | Liver weight (CT-26 colon carcinoma; [8]): 1.2 ± 0.1 g | Spleen (primary) Incidence (CT-26 colon carcinoma; [8]): 5/5 | Liver metastasis Incidence (CT-26 colon carcinoma; [9]): 5/5 | Liver weight (CT-26 colon carcinoma; [9]): 2.6 ± 0.3 g | Spleen (primary) Incidence (CT-26 colon carcinoma; [9]): 5/5 | Liver metastasis Incidence (CT-26 colon carcinoma; [11]): 0/5^b | Liver weight (CT-26 colon carcinoma; [11]): 1.2 ± 0.2 g | Spleen tumor Incidence (CT-26 colon carcinoma; [11]): 5/5^b | Liver metastasis Incidence (CT-26 colon carcinoma; [12]): 1/10^b | Liver weight (CT-26 colon carcinoma; [12]): 1.9 ± 0.3^c,d g | Spleen tumor Incidence (CT-26 colon carcinoma; [12]): 6/10^b | Liver metastasis Incidence (CT-26 colon carcinoma; [13]): 8/10 | Liver weight (CT-26 colon carcinoma; [13]): 2.0 ± 0.9^c g | Spleen tumor Incidence (CT-26 colon carcinoma; [13]): 7/10
